Data on twelve compounds can be found in ChEMBL document CHEMBL1157542, “Design and synthesis of potent and selective BACE-1 inhibitors” (J Med Chem, 2010).

Usually Ki stands for a dissociation constant, usually derived from enzyme kinetics or from competition with a known ligand.

Assay [1] deals with Cathepsin D (Homo sapiens, UniProt P07339).
Description: Inhibition of human liver cathepsin D
Assay [2] addresses Beta-secretase 1 (Homo sapiens, UniProt P56817). In words: biochemical.
Description: Inhibition of human BACE1 expressed in Escherichia coli cells (BL21(DE3) by TRF assay

Chain of Beta-secretase 1 (P56817 whole entry): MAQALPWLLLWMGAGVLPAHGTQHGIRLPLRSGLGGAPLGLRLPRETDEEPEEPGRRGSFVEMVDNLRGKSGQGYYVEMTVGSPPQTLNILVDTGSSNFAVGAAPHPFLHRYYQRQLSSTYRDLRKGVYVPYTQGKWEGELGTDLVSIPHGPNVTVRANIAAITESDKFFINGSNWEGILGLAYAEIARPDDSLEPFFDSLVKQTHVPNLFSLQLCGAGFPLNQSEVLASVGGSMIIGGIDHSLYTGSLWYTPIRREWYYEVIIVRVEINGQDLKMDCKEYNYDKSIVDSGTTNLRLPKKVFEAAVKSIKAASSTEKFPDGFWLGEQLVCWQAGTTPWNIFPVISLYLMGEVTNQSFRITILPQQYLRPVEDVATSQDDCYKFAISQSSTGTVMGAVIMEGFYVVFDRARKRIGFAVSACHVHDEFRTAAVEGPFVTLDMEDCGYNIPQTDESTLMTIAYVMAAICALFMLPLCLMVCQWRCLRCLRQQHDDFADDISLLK
Chain of Cathepsin D (P07339 65-162 limits assumed): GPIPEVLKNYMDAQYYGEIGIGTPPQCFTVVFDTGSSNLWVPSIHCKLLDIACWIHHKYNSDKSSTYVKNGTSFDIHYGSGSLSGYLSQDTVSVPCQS
Chain of Cathepsin D (P07339 169-412 limits assumed): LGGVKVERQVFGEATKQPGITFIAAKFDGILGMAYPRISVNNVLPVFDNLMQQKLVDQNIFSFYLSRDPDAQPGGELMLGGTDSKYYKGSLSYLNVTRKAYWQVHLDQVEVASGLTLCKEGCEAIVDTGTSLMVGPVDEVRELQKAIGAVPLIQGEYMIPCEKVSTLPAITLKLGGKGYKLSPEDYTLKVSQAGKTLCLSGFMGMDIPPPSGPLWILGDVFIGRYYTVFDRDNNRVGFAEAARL

In the case of `CO[C@H](C[C@H](O)[C@H](COc1ccc(Br)cc1)NC(=O)c1cc(C(=O)N[C@H](C)c2ccccc2)cc(N(C)CS(C)(=O)=O)c1)C(=O)N[C@H](C(=O)NCc1ccccc1)C(C)C`, the inhibition constant Ki in assay [1] was 840 nM; in assay [2], 75 nM.
With `CO[C@H](C[C@H](O)[C@H](COc1cc(F)cc(F)c1)NC(=O)c1cc(C(=O)N[C@H](C)c2ccccc2)cc(N(C)CS(C)(=O)=O)c1)C(=O)Nc1ccccc1`, the Ki in assay [1] was > 5000 nM; in assay [2], 200 nM.
For the compound `CO[C@H](C[C@H](O)[C@H](COc1cc(F)cc(F)c1)NC(=O)c1cc(C(=O)N[C@H](C)c2ccccc2)cc(N(C)CS(C)(=O)=O)c1)C(=O)NCc1ccccc1`, the values for the Ki in assay [1] and in assay [2] were > 5000 nM and 1400 nM, respectively.
In the case of `CO[C@H](C[C@H](O)[C@H](COc1cc(F)cc(F)c1)NC(=O)c1cc(C(=O)N[C@H](C)c2ccccc2)cc(N(C)CS(C)(=O)=O)c1)C(=O)NCC(C)C`, the Ki in assay [1] is > 5000 nM; in assay [2], 400 nM.
Consider `CO[C@H](C[C@H](O)[C@H](COc1cc(F)cc(F)c1)NC(=O)c1cc(C(=O)N[C@H](C)c2ccccc2)cc(N(C)CS(C)(=O)=O)c1)C(=O)NC1CC1`, for which the inhibition constant (Ki) in assay [1] was > 5000 nM; in assay [2] it was 1800 nM.
Regarding `CO[C@H](C[C@H](O)[C@H](COc1cc(F)cc(F)c1)NC(=O)c1cc(C(=O)N[C@H](C)c2ccccc2)cc(N(C)CS(C)(=O)=O)c1)C(=O)N[C@H](C(=O)NCc1ccccc1)C(C)C`, the Ki is 1100 nM in assay [1] and < 1 nM in assay [2].
For the compound `CO[C@H](C[C@H](O)[C@H](COCc1cc(F)cc(F)c1)NC(=O)c1cc(C(=O)N[C@H](C)c2ccccc2)cc(N(C)CS(C)(=O)=O)c1)C(=O)N[C@H](C(=O)NCc1ccccc1)C(C)C`, in assay [2], the affinity, expressed as Ki, was 80 nM.
Still for that read-out and setting: as for `CCCN(CCC)C(=O)c1cccc(C(=O)N[C@@H](COc2cc(F)cc(F)c2)[C@@H](O)C[C@@H](OC)C(=O)NC2CC2)c1`, the figure is 220 nM; as for `CO[C@H](C[C@H](O)[C@H](COCc1ccc(Br)cc1)NC(=O)c1cc(C(=O)N[C@H](C)c2ccccc2)cc(N(C)CS(C)(=O)=O)c1)C(=O)N[C@H](C(=O)NCc1ccccc1)C(C)C`, 60 nM; as for `CCCN(CCC)C(=O)c1cccc(C(=O)N[C@@H](COCc2cc(F)cc(F)c2)[C@@H](O)C[C@@H](OC)C(=O)NC2CC2)c1`, > 10000 nM.
For `CO[C@H](C[C@H](O)[C@H](COc1ccccc1)NC(=O)c1cc(C(=O)N[C@H](C)c2ccccc2)cc(N(C)CS(C)(=O)=O)c1)C(=O)N[C@H](C(=O)NCc1ccccc1)C(C)C`, the Ki was found to be 460 nM in assay [1] and 9 nM in assay [2].
On to `CO[C@H](C[C@H](O)[C@H](COc1cc(F)cc(F)c1)NC(=O)c1cc(C(=O)N[C@H](C)c2ccccc2)cc(N(C)CS(C)(=O)=O)c1)C(=O)Nc1ccc(F)cc1`, for which the inhibition constant (Ki) in assay [1] is > 5000 nM; in assay [2] it was 100 nM.
